Data published in patent US9415047B2, “Use of benzo five-membered nitrogen heterocyclic piperazine or piperidine derivatives” (Liaoning Emmy Biological Pharmaceutical Co., Ltd., priority 2012, dated 2016).
pEC50: −log10 of the molar value.

Tests used:
[1] = system: AD constricted rabbit aorta; assay: Relaxing effects on vascular smooth muscle constricted by adrenaline hydrochloride (AD) in vitro; conditions: Oryctolagus cuniculus; relaxation of rabbit aorta constricted by adrenaline (10^−5 mol/L); mean±SEM, n=5
Experimental: Adrenaline hydrochloride (AD) (10^−5 mol/L) was added into a bath tube to induce constriction, when maximal constriction was achieved, the sample was completely flushed, K-H solution was changed for every 20 min. Contents in the tube was balanced for 60 min, when baseline recovered to be stable, the […] was added at the same concentration to induce constriction. When the later maximal constriction response was basically consistent with the former one, the prepared compound solutions were subsequently added, including compound II-1 to II-60 solutions (1×10^−8-1×10^−3 mol/L), compound II-84 to II-123 solutions (1×10^−10-1×10^−2 mol/L) and compound II-124 to II-157 solutions (1×10^−10˜1×10^−3 mol/L), to record the waveforms. Relaxing percentage of the compound was used as Y axis, maximal relaxation response was 100%, negative logarithm of different concentration was used as X axis, to draw dose effect curve (expressed in mean±SEM ( ? ), n=5). Compounds II-2 and II-3 had the most obvious relaxing effects (FIG. 1 and FIG. 8).

[2] = system: high kalium concentration constricted rabbit aorta; assay: Relaxing effects on vascular smooth muscle constricted by high kalium concentration in vitro; conditions: Oryctolagus cuniculus, relaxation of rabbit aorta constricted by high kalium solution (K+ 60 mmol/L); mean±SEM, n=5
Experimental: Adrenaline hydrochloride (AD) (10^−5 mol/L) was added into a bath tube to induce constriction, when maximal constriction was achieved, the sample was completely flushed, K-H solution was changed for every 20 min. Contents in the tube was balanced for 60 min, when baseline recovered to be stable, K-H solution in the bath tube was replaced with high kalium concentration solution to induce constriction. When the later maximal constriction response was basically consistent with the former one, the prepared compound solutions were subsequently added, including compound II-1 to II-60 solutions (1×10^−8-1×10^−3 mol/L), compound II-84 to II-123 solutions (1×10^−10-1×10^−2 mol/L) and compound II-124 to II-157 solutions (1×10^−10-1×10^−3 mol/L), to record the waveforms. Relaxing percentage of the compound was used as Y axis, maximal relaxation response was 100%, negative logarithm of different concentration was used as X axis, to draw dose effect curve (expressed in mean±SEM ( ? ), n=5). Compounds II-2 and II-3 had the most obvious relaxing effects (FIG. 2 and FIG. 9).

Row | Compound | pEC50 [1] | pEC50 [2]
1 | c1ccc2c(c1)ncn2CCCCN1CCN(C2CCCCC2)CC1 [II-15, 1-(4-(4-(1-cyclohexyl)piperazine-1-yl)butyl)-1H-benzimidazole] | 4.47 | 4.52
2 | COc1ccc2nnn(CCCN3CCC(c4nsc5cc(F)ccc45)CC3)c2c1 [II-149, N-(3-(6-methoxylbenzotriazolyl)propyl)-4-(3-(6-fluorobenzisothiazolyl))piperidine] | 4.01 | 3.31
3 | Fc1cccc(N2CCN(CCCn3cnc4ccccc43)CC2)c1 [II-8, 1-(3-(4-(3-fluorophenyl)piperazine-1-yl)propyl)-1H-benzimidazole] | 4.71 | 4.41
4 | N#Cc1ccc2nnn(CCCCN3CCC(c4noc5cc(F)ccc45)CC3)c2c1 [II-145, N-(4-(6-cyanobenzotriazolyl)butyl)-4-(3-(6-fluorobenzisoxazolyl))piperidine] | 5.53 | 3.53
5 | COc1ccc2nnn(CCCN3CCC(c4n[nH]c5cc(F)ccc45)CC3)c2c1 [II-150, N-(3-(6-methoxylbenzotriazolyl)propyl)-4-(3-(6-fluorobenzopyrazol))piperidine] | 4.13 | 3.63
6 | FC(F)(F)c1cccc(N2CCN(CCCCn3cnc4ccc(Cl)cc43)CC2)c1 [II-25, 6-chloro-1-(4-(4-(3-trifluoromethylphenyl)piperazine-1-yl)butyl)-1H-benzimidazole] | 4.79 | 4.53
7 | Fc1ccc2c(N3CCN(CCCCn4cnc5ccccc54)CC3)coc2c1 [II-21, 1-(4-(4-(3-(6-fluorobenzofuranyl))piperazine-1-yl)butyl)-1H-benzimidazole] | 4.05 | 3.75
8 | FC(F)(F)c1cccc(N2CCN(CCCn3ncc4ccccc43)CC2)c1 [II-59, 1-(3-(4-(3-trifluoromethylphenyl)piperazine-1-yl)propyl)-1H-benzopyrazole] | 4.53 | 4.21
9 | Cc1cc2nnn(CCCCN3CCN(c4cccc(C(F)(F)F)c4)CC3)c2cc1C [II-33, 5,6-dimethyl-1-(4-(4-(3-trifluoromethylphenyl)piperazine-1-yl)butyl)-1H-benzotriazole] | 4.39 | 3.94
10 | Fc1ccc2c(N3CCN(CCCCn4cnc5ccccc54)CC3)nsc2c1 [II-19, 1-(4-(4-(3-(6-fluorobenzisothiazolyl))piperazine-1-yl)butyl)-1H-benzimidazole] | 4.18 | 4.06
11 | Fc1ccc2ncn(CCCCN3CCN(c4cccc(C(F)(F)F)c4)CC3)c2c1 [II-6, 6-fluoro-1-(4-(4-(3-trifluoromethylphenyl)piperazine-1-yl)butyl)-1H-benzimidazole] | 4.63 | 4.41
12 | FC(F)(F)c1cccc(N2CCN(CCCCCn3c(Cl)nc4ccccc43)CC2)c1 [II-28, 2-chloro-1-(5-(4-(3-trifluoromethylphenyl)piperazine-1-yl)pentyl)-1H-benzimidazole] | 3.99 | 3.85
13 | Fc1ccc2c(N3CCN(CCCOn4nnc5ccc(F)cc54)CC3)nsc2c1 [II-53, 6-fluoro-1-(4-(4-(3-(6-fluoro-benzisothiazolyl))piperazine-1-yl)propoxyl)-1H-benzotriazole] | 4.28 | 3.88
14 | Clc1cccc(N2CCN(CCCCn3nnc4ccccc43)CC2)c1 [II-29, 1-(4-(4-(3-chlorophenyl)piperazine-1-yl)butyl)-1H-benzotriazole] | 6.01 | 5.64
15 | c1ccc2c(c1)nnn2CCCCN1CCN(c2nsc3ccccc23)CC1 [II-34, 3-(4-(4-(1H-benzotriazole-1-yl)butyl)piperazine-1-yl)benzisothiazole] | 8.07 | 4.77
16 | Fc1ccc2c(C3CCN(CCCCn4nnc5ccccc54)CC3)noc2c1 [II-144, N-(4-(1-benzotriazolyl)butyl)-4-(3-(6-fluorobenzisoxazolyl))piperidine] | 5.96 | 3.96
17 | Cc1nc2ccccc2n1CCCCN1CCN(c2cccc(C(F)(F)F)c2)CC1 [II-5, 2-methyl-1-(4-(4-(3-trifluoromethylphenyl)piperazine-1-yl)butyl)-1H-benzimidazole] | 4.78 | 4.53
18 | N#Cc1ccc2ccn(CCCCN3CCN(c4cccc(Cl)c4)CC3)c2c1 [II-58, 6-cyano-1-(4-(4-(3-chlorophenyl)piperazine-1-yl)butyl)-1H-indole] | 4.17 | 3.75
19 | c1ccc2c(N3CCN(CCCCn4cnc5ccccc54)CC3)cccc2c1 [II-16, 1-(4-(4-(1-naphthyl)piperazine-1-yl)butyl)-1H-benzimidazole] | 4.29 | 4.19
20 | Fc1ccc2c(N3CCN(CCCCn4cnc5ccccc54)CC3)noc2c1 [II-18, 1-(4-(4-(3-(6-fluorobenzisoxazolyl))piperazine-1-yl)butyl)-1H-benzimidazole] | 4.86 | 4.74

Second part, the compound after the results:

Row | pEC50 [1] | pEC50 [2] | Compound
21 | 4.15 | 3.73 | c1ccc2c(c1)nnn2CCCCN1CCN(c2ccncc2)CC1 [II-44, 1-(4-(4-(4-pyridyl)piperazine-1-yl)butyl)-1H-benzotriazole]
22 | 3.88 | 3.54 | c1ccc2c(N3CCN(CCCCn4nnc5ccccc54)CC3)cccc2c1 [II-47, 1-(4-(4-(1-naphthyl)piperazine-1-yl)butyl)-1H-benzotriazole]
23 | 4.45 | 3.85 | c1coc(N2CCN(CCCCn3nnc4ccccc43)CC2)c1 [II-43, 1-(4-(4-(2-furyl)piperazine-1-yl)butyl)-1H-benzotriazole]
24 | 4.53 | 4.31 | c1ccc2nc(N3CCN(CCCCn4cnc5ccccc54)CC3)cnc2c1 [II-17, 1-(4-(4-(2-quinoxalinyl)piperazine-1-yl)butyl)-1H-benzimidazole]
25 | 4.89 | 4.49 | c1ccc2c(c1)nnn2CCCCN1CCN(c2noc3ccccc23)CC1 [II-35, 3-(4-(4-(1H-benzotriazole-1-yl)butyl)piperazine-1-yl)benzisoxazole]
26 | 5.31 | 5.31 | Fc1ccc2c(N3CCN(CCCCn4nnc5ccccc54)CC3)noc2c1 [II-36, 6-fluoro-3-(4-(4-(1H-benzotriazole-1-yl)butyl)piperazine-1-yl)benzisoxazole]
27 | 4.05 | 3.85 | Fc1ccc2c(N3CCN(CCCCn4nnc5ccccc54)CC3)nsc2c1 [II-49, 1-(4-(4-(3-(6-fluorobenzisothiazolyl))piperazine-1-yl)butyl)-1H-benzotriazole]
28 | 5.52 | 5.13 | Fc1cccc(N2CCN(CCCCn3nnc4ccccc43)CC2)c1 [II-30, 1-(4-(4-(3-fluorophenyl)piperazine-1-yl)butyl)-1H-benzotriazole]
29 | 4.01 | 3.71 | N#Cc1ccc2nnn(CCCCN3CCN(c4cccc(C(F)(F)F)c4)CC3)c2c1 [II-55, 6-cyano-1-(4-(4-(3-trifluoromethylphenyl)piperazine-1-yl)butyl)-1H-benzotriazole]
30 | 4.26 | 3.92 | c1ccc2c(c1)nnn2CCCCN1CCN(C2CCCCC2)CC1 [II-46, 1-(4-(4-cyclohexylpiperazine-1-yl)butyl)-1H-benzotriazole]
31 | 5.56 | 5.43 | Fc1ccc2c(N3CCN(CCCn4nnc5ccccc54)CC3)noc2c1 [II-37, 6-fluoro-3-(4-(3-(1H-benzotriazole-1-yl)propyl)piperazine-1-yl)benzisoxazole]
32 | 4.41 | 4.52 | c1ccc2c(c1)ncn2CCCCN1CCN(c2ccncc2)CC1 [II-13, 1-(4-(4-(4-pyridyl)piperazine-1-yl)butyl)-1H-benzimidazole]
33 | 4.51 | 4.61 | N#Cc1cccc(N2CCN(CCCCn3nnc4ccccc43)CC2)c1 [II-41, 1-(4-(4-(3-cyanophenyl)piperazine-1-yl)butyl)-1H-benzotriazole]
34 | 4.96 | 4.79 | COc1ccccc1N1CCN(CCCCn2cnc3ccccc32)CC1 [II-4, 1-(4-(4-(2-methoxyphenyl)piperazine-1-yl)butyl)-1H-benzimidazole]
35 | 5.03 | 5.05 | Clc1cccc(N2CCN(CCCCn3cnc4ccccc43)CC2)c1 [II-1, 1-(4-(4-(3-chlorophenyl)piperazine-1-yl)butyl)-1H-benzimidazole]
36 | 4.39 | 3.93 | FC(F)(F)c1cccc(N2CCN(CCCCCn3nnc4ccccc43)CC2)c1 [II-42, 1-(5-(4-(3-trifluoromethylphenyl)piperazine-1-yl)pentyl)-1H-benzotriazole]
37 | 4.33 | 4.09 | c1cnc(N2CCN(CCCCn3nnc4ccccc43)CC2)nc1 [II-45, 1-(4-(4-(2-pyrimidinyl)piperazine-1-yl)butyl)-1H-benzotriazole]
